# Measurements as given in ChEMBL document CHEMBL1201862, “PubChem BioAssay data set” (2004).
#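 A five-concentration, 48-hour dose response in 96-well plates underlies each endpoint, interpolated linearly between surrounding concentrations. At the GI50, growth is halved.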 Activity calls are given as the source filed them. No stated cut-off is given here; in the data, active = GI50 up to about 1.1 µM and inactive = higher.
# Tests used:
# Assay in all cases: growth of human tumour cells (NCI), 48 h
# OVCAR-8 = test system: OVCAR-8
# A498 = test system: A498
# SW-620 = test system: SW-620
# SNB-78 = test system: SNB-78
# NCI-H522 = test system: NCI-H522
# IGROV-1 = test system: IGROV-1
# HOP-92 = test system: HOP-92
# A549 = test system: A549
# COLO 205 = test system: COLO 205
# HOP-18 = test system: HOP-18
# RXF 393 = test system: RXF 393
# SR = test system: SR
# UACC-257 = test system: UACC-257
# LXFL 529 = test system: LXFL 529
# HT-29 = test system: HT-29
# K562 = test system: K562
# OVCAR-3 = test system: OVCAR-3
# OVCAR-4 = test system: OVCAR-4
# DLD-1 = test system: DLD-1
# ACHN = test system: ACHN
# KM12 = test system: KM12
# M19-MEL = test system: M19-MEL
# RPMI-8226 = test system: RPMI-8226
# HCT-15 = test system: HCT-15
# LOX IMVI = test system: LOX IMVI
# SK-MEL-2 = test system: SK-MEL-2
# KM-20L2 = test system: KM-20L2
# SK-OV-3 = test system: SK-OV-3
# Malme-3M = test system: Malme-3M
# SK-MEL-28 = test system: SK-MEL-28
# HCT-116 = test system: HCT-116
# M14 = test system: M14
# 786-0 = test system: 786-0
# OVCAR-5 = test system: OVCAR-5
# TK-10 = test system: TK-10
# SK-MEL-5 = test system: SK-MEL-5
# HL-60 = test system: HL-60
# MOLT-4 = test system: MOLT-4
# DMS-114 = test system: DMS-114
# SNB-19 = test system: SNB-19
# HCC 2998 = test system: HCC 2998
# HOP-62 = test system: HOP-62
# NCI-H226 = test system: NCI-H226
# EKVX = test system: EKVX
# SN12C = test system: SN12C
# U-251 = test system: U-251
# NCI-H23 = test system: NCI-H23
# SF-539 = test system: SF-539
# UACC-62 = test system: UACC-62
# SNB-75 = test system: SNB-75
# SF-295 = test system: SF-295
# DMS-273 = test system: DMS-273
# CCRF-CEM = test system: CCRF-CEM
# XF498 = test system: XF498
# UO-31 = test system: UO-31
# NCI-H460 = test system: NCI-H460
smiles,measurement,setting,value
Cc1cc(C(=O)NCCN(C)C)c2nc3ccccc3nc2c1,GI50,OVCAR-8,4.81 µM (inactive)
same,GI50,A498,3.92 µM (inactive)
same,GI50,SW-620,1.97 µM (inactive)
same,GI50,SNB-78,12.8 µM (inactive)
same,GI50,NCI-H522,16.6 µM (inactive)
same,GI50,IGROV-1,4.81 µM (inactive)
same,GI50,HOP-92,1.06 µM (active)
same,GI50,A549,3.88 µM (inactive)
same,GI50,COLO 205,3.08 µM (inactive)
same,GI50,HOP-18,> 35.1 µM (inactive)
same,GI50,RXF 393,5.37 µM (inactive)
same,GI50,SR,0.453 µM (active)
same,GI50,UACC-257,4.16 µM (inactive)
same,GI50,LXFL 529,8.3 µM (inactive)
same,GI50,HT-29,2.67 µM (inactive)
same,GI50,K562,2.05 µM (inactive)
same,GI50,OVCAR-3,5.71 µM (inactive)
same,GI50,OVCAR-4,4.75 µM (inactive)
same,GI50,DLD-1,4.08 µM (inactive)
same,GI50,ACHN,2.22 µM (inactive)
same,GI50,KM12,3.91 µM (inactive)
same,GI50,M19-MEL,3.13 µM (inactive)
same,GI50,RPMI-8226,3.15 µM (inactive)
same,GI50,HCT-15,2.9 µM
same,GI50,LOX IMVI,2.22 µM (inactive)
same,GI50,SK-MEL-2,4.33 µM (inactive)
same,GI50,KM-20L2,3.1 µM (inactive)
same,GI50,SK-OV-3,11.7 µM (inactive)
same,GI50,Malme-3M,3.21 µM (inactive)
same,GI50,SK-MEL-28,5.05 µM (inactive)
same,GI50,HCT-116,1.48 µM (inactive)
same,GI50,M14,4.98 µM (inactive)
same,GI50,786-0,7.8 µM (inactive)
same,GI50,OVCAR-5,7.43 µM (inactive)
same,GI50,TK-10,4.42 µM (inactive)
same,GI50,SK-MEL-5,4.44 µM (inactive)
same,GI50,HL-60,3.41 µM (inactive)
same,GI50,MOLT-4,0.128 µM (active)
same,GI50,DMS-114,3.19 µM (inactive)
same,GI50,SNB-19,6.79 µM (inactive)
same,GI50,HCC 2998,6.38 µM (inactive)
same,GI50,HOP-62,2.17 µM (inactive)
same,GI50,NCI-H226,3.44 µM (inactive)
same,GI50,EKVX,8.26 µM (inactive)
same,GI50,SN12C,3.45 µM (inactive)
same,GI50,U-251,5.82 µM (inactive)
same,GI50,NCI-H23,5.27 µM (inactive)
same,GI50,SF-539,4.31 µM (inactive)
same,GI50,UACC-62,6.32 µM (inactive)
same,GI50,SNB-75,4.52 µM (inactive)
same,GI50,SF-295,4.55 µM (inactive)
same,GI50,DMS-273,3.87 µM (inactive)
COc1cc2c(cc1OC)[C@]1(O)C(=O)c3ccc4c(c3O[C@@H]1CO2)C[C@H](C(C)(C)O)O4,GI50,OVCAR-8,85.3 µM (inactive)
same,GI50,A498,45.8 µM (inactive)
same,GI50,SW-620,> 100 µM (inactive)
same,GI50,SNB-78,> 100 µM (inactive)
same,GI50,NCI-H522,5.86 µM (inactive)
same,GI50,IGROV-1,> 100 µM (inactive)
same,GI50,HOP-92,33.6 µM (inactive)
same,GI50,A549,> 100 µM (inactive)
same,GI50,CCRF-CEM,68.1 µM (inactive)
same,GI50,COLO 205,> 100 µM (inactive)
same,GI50,RXF 393,8.3 µM (inactive)
same,GI50,XF498,> 100 µM (inactive)
same,GI50,UACC-257,6.95 µM (inactive)
same,GI50,UO-31,7.29 µM (inactive)
same,GI50,LXFL 529,56.1 µM (inactive)
same,GI50,HT-29,> 100 µM (inactive)
same,GI50,K562,17.1 µM (inactive)
same,GI50,OVCAR-3,74.3 µM (inactive)
same,GI50,DLD-1,> 100 µM (inactive)
same,GI50,ACHN,15.1 µM (inactive)
same,GI50,KM12,> 100 µM (inactive)
same,GI50,M19-MEL,> 100 µM (inactive)
same,GI50,RPMI-8226,36.5 µM (inactive)
same,GI50,LOX IMVI,11.1 µM (inactive)
same,GI50,SK-MEL-2,> 100 µM (inactive)
same,GI50,KM-20L2,> 100 µM (inactive)
same,GI50,SK-OV-3,> 100 µM (inactive)
same,GI50,NCI-H460,> 100 µM (inactive)
same,GI50,Malme-3M,8.89 µM (inactive)
same,GI50,SK-MEL-28,> 100 µM (inactive)
same,GI50,HCT-116,26.2 µM (inactive)
same,GI50,M14,> 100 µM (inactive)
same,GI50,786-0,> 100 µM (inactive)
same,GI50,OVCAR-5,> 100 µM (inactive)
same,GI50,TK-10,> 100 µM (inactive)
same,GI50,HL-60,24.9 µM (inactive)
same,GI50,MOLT-4,48.9 µM (inactive)
same,GI50,DMS-114,3.61 µM (inactive)
same,GI50,SNB-19,> 100 µM (inactive)
same,GI50,HCC 2998,> 100 µM (inactive)
same,GI50,HOP-62,> 100 µM (inactive)
same,GI50,EKVX,10.3 µM (inactive)
same,GI50,U-251,> 100 µM (inactive)
same,GI50,NCI-H23,2.65 µM (inactive)
same,GI50,SF-539,> 100 µM (inactive)
same,GI50,UACC-62,> 100 µM (inactive)
same,GI50,SNB-75,22 µM (inactive)
same,GI50,DMS-273,> 100 µM (inactive)
